No end group written: not given here. *: point of attachment. For = O=C*
Legend:
Assay type in all cases: cell-based, human
HL60 cells [1] = experiment: Cell cycle assay, HL60 cells; details: 72 h
Procedure: (§1) A panel of human myeloid leukemia cell lines (HL60, K562, KG1a, THP1 and U937) and HS-5 mesenchymal stromal cells lineage were cultured in Roswell Park Memorial Institute medium-1640 (RPMI; Sigma) containing 10% Fetal Bovine Serum (Gibco), glutamine (2 mM; Sigma), penicillin (100 μg/mL; Sigma), streptomycin (100 μg/mL; Sigma), and amphotericin B (0.25 μg/mL; Gibco). The cells were maintained in a humidified atmosphere at 37° C. and 5% CO2 and the experiments were performed when they reached exponential growth. For the assays, cells were seeded on a 24-well plate and treated or not with Foxy-5 for 72 hours.
(§2) Cells treated with Foxy or with vehicle were collected and fixed, at least, 24 hours in 70% ethanol. DNA was stained with a buffer containing iodide propidium (20 μg/mL; Sigma) and RNase A (10 μg/mL; Sigma). Cell fluorescence was detected with a FACSCalibur flow cytometer (BD). The proportions of cells in the cell cycle phases were analyzed by Modifit (Verify Software House Inc), according to DNA distributions.
(§3) As we observed a reduction in the leukemic proliferation after Foxy-5 treatment, we also analyzed the cell cycle phases. Leukemia cell lines were treated for 72 hours with Foxy-5, at doses of 50 μM and 100 μM, or vehicle, stained with the Piper buffer containing RNAse and iodeto propidium and then analyzed by flow cytometry.

HL60 cells [2] = experiment: Actin polymerization assay, HL60 cells; details: HL60, Foxy-5 100 μM 72 h
Procedure: (§4) F-actin polymerization was analyzed in treated leukemic cell lines using AlexaFluor 633-labeled phalloidin (A22284, Invitrogen) before and after CXCL12 stimulation. The cells were stimulated with CXCL12 (300 ng/ml; Peprotech) in serum-free media at 37 °C for 30 and 120 seconds. The reaction was stopped by adding 3 volumes of paraformaldehyde (3.7%) at room temperature for 10 min, then washed and permeabilized on ice. Cells were stained with 633-phalloidin (2 mg/mL). Flow cytometric data were analyzed using a FACS flow cytometer (BD) followed by FlowJo software analysis. The F-actin content obtained were normalized calculating the ratio between each stimulated cells-mean fluorescence intensity (MFI) values and the nonstimulated cells MFI from the basal levels of the control cells and expressed as fold change.
(§5) Therefore, we performed a flow cytometry analysis to evaluate whether Foxy-5 treatment would be able to disrupt actin polymerization. Leukemia cell lines were treated with Foxy-5 (100 μM) or vehicle during 72 hours, stimulated with CXCL12 (300 ng/ml) for 30 or 120 seconds, and stained with […] for detection of actin polymerization by flow cytometry. […] Thus, a significant reduction of actin polymerization was shown after Foxy-5 treatment when compared to untreated cells after 30 seconds of CXCL12 induction (P<. 001).

PI3K and MAPK pathways = experiment: Western blot of PI3K and MAPK pathway proteins, U937 cells; details: U937, Foxy-5 50 μM or 100 μM, 72 h
Procedure: Equal amounts of protein were resolved by sodium dodecyl sulphate-polyacrylamide gel electrophoresis and transferred onto nitrocellulose membranes (Millipore). Detection was carried out with the chemiluminescent substrate using an ECL Plus (GE-Healthcare). Monoclonal antibodies against P70S6K (sc-8418) and polyclonal antibodies against Actin (sc-1616), AKT1/2/3 (sc-8312), BAX (sc-493), BCL-XL (sc-8392), GAPDH (sc-32,233), p-AKT1/2/3 (sc-33,437) and p-P70S6K (sc-7984) were purchased from Santa Cruz Biotechnology. ERK1/2 ([pT185/Y187]; 44-680G) and ERK1/2 (44-654G) from Invitrogen. Quantitative blots were carried out using the UN-SCAN-IT densitometer software.
Based on the above results, the activity of proteins of PI3K and MAPK pathways were then investigated in a western blot. Briefly, U937 and K562 cells were seeded and treated with Foxy-5 (50 μM or 100 μM) or vehicle for 72 hours. Then, equal amounts of protein were used for total extracts followed by electrophoresis on 12% SDS polyacrylamide gels under reducing conditions, transferred to nitrocellulose membranes, blocked with 10% skimmed milk in TBS-0.1% Tween for 1 hour, stained with appropriate primary and secondary antibodies. The membranes were visualized with chemiluminescence using an ECL Plus (GE-Healthcare). Quantitative analyses of the optical intensities of the protein bands were determined with Un-Scan-It Gel 6.1 (Silk Scientific Inc.).

KG1a cells [3] = experiment: Cell cycle assay, KG1a cells; details: 72 h
Procedure: as §1, §2, §3

K562 cells = experiment: Cell cycle assay, K562 cells; details: 72 h
Procedure: as §1, §2, §3

U937 cells = experiment: Actin polymerization assay, U937 cells; details: U937, Foxy-5 100 μM 72 h
Procedure: as §4, §5

KG1a cells [4] = experiment: Autophagy assay (acridine orange), KG1a cells; details: 2D culture, 72 h
Procedure: as §1
Cells treated with Foxy or with vehicle were collected and acids vesicles were measured by flow cytometry following staining with Acridine Orange (0.01 mg/mL; Sigma). Acquisition of cells was performed on a FACScalibur flow cytometer (BD) and analysis was carried out using the FlowJo software 4.
As autophagy is required for sustaining leukemia cell growth by induction of ROS production, we measured the levels of acidic granule formation by flow cytometry after Foxy-5 or vehicle treatment. […]

[5] = CXCL12 300 ng/ml for 30 seconds
[6] = CXCL12 300 ng/ml for 120 seconds

Q: “Foxy-5: Formylated hexapeptide fragment of WNT5A: MDGCEL (SEQ. ID. NO. 3) with methionine in position 1 as N-formyl methionine; WNT5A-mimicking compound (For-MDGCEL; listed as Homo sapiens)” was tested. Which “cells in G0/G1 cell cycle phase (average)” value (from here on “cells … (average)”) (HL60 cells [1]; HL60, co-cultured with HS5 stromal cells, Foxy-5 50 μM) did it give?
A: The value was 53.47%.

Q: And the “cells … (average)” value (HL60 cells [1]; HL60, co-cultured with HS5 stromal cells, Foxy-5 100 μM)?
A: Its value is 70.68%.

Q: What about the “cells … (average)” value (HL60 cells [1]; HL60, monoculture, Foxy-5 50 μM) of the same substance?
A: Its value is 51.57%.

Q: And the “cells … (average)” value (HL60 cells [1]; HL60, monoculture, Foxy-5 100 μM)?
A: Its value is 53.02%.

Q: What about the “F-actin content following CXCL12 stimulation” value (HL60 cells [2]; [5]) of the same substance?
A: Its value is 1.14 fold increase.

Q: And the “F-actin content following CXCL12 stimulation” value (HL60 cells [2]; [6])?
A: Its value is 1.07 fold increase.

Q: What about the “phosphorylation level of AKT compared to vehicle-treated cells” value (PI3K and MAPK pathways) of the same substance?
A: The value was “lower phosphorylation levels”.

Q: And the “phosphorylation level of ERK compared to vehicle-treated cells” value (PI3K and MAPK pathways)?
A: The value was “lower phosphorylation levels”.

Q: What about the “protein level of cyclin D1 compared to vehicle-treated cells” value (PI3K and MAPK pathways) of the same substance?
A: Its value is “reduced protein level”.

Q: And the “cells … (average)” value (KG1a cells [3]; co-cultured with HS5 stromal cells, Foxy-5 50 μM)?
A: Its value is 78.58%.

Q: And the “cells … (average)” value (KG1a cells [3]; co-cultured with HS5 stromal cells, Foxy-5 100 μM)?
A: Its value is 76.53%.

Q: And the “cells … (average)” value (KG1a cells [3]; monoculture, Foxy-5 50 μM)?
A: The value was 69.95%.

Q: And the “cells … (average)” value (KG1a cells [3]; monoculture, Foxy-5 100 μM)?
A: The value was 73.79%.

Q: And the “cells … (average)” value (K562 cells; K562, co-cultured with HS5 stromal cells, Foxy-5 50 μM)?
A: The value was 65.32%.

Q: And the “cells … (average)” value (K562 cells; K562, co-cultured with HS5 stromal cells, Foxy-5 100 μM)?
A: The value was 83.52%.

Q: And the “cells … (average)” value (K562 cells; K562, monoculture, Foxy-5 50 μM)?
A: The value was 59.00%.

Q: What about the “cells … (average)” value (K562 cells; K562, monoculture, Foxy-5 100 μM) of the same substance?
A: Its value is 83.51%.

Q: What about the “F-actin content following CXCL12 stimulation” value (U937 cells; [5]) of the same substance?
A: Its value is 3.03 fold increase.

Q: What about the “F-actin content following CXCL12 stimulation” value (U937 cells; [6]) of the same substance?
A: Its value is 1.26 fold.

Q: And the “autophagy (acidic granule formation, acridine orange, average)” value (KG1a cells [4]; Foxy-5 50 μM)?
A: Its value is 27.30 (range 27.20-29.83) MFI.

Q: What about the “autophagy (acidic granule formation, acridine orange, average)” value (KG1a cells [4]; Foxy-5 100 μM) of the same substance?
A: The value was 21.55 (range 19.05-22.40) MFI.
